The record followed here is patent publication EP2108954A1, “A test system for detecting intracellular cyclic nucleotide level and methods and uses thereof” (Max-Planck-Gesellschaft zur Förderung der Wissenschaften …, priority 2008, dated 2009).

The target of assay [1] is T1, Or22a and Or83b (Drosophila melanogaster, UniProt P81909+Q9VNB5).
T1 construct: expressed in transfected cells; host or cells: HEK293
T1 sequence (P81909 1-397): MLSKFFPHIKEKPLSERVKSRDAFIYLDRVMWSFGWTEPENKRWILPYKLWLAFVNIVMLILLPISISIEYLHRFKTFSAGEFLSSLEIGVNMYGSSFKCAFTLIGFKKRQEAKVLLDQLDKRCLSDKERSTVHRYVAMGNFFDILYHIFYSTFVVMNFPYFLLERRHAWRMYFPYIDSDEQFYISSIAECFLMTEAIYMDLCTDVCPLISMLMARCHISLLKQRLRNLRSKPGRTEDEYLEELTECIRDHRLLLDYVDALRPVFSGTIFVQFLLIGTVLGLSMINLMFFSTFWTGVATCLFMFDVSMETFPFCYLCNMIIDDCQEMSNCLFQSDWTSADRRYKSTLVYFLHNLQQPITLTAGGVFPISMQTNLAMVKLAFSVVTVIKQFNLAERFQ
T1 sequence (Q9VNB5 1-486): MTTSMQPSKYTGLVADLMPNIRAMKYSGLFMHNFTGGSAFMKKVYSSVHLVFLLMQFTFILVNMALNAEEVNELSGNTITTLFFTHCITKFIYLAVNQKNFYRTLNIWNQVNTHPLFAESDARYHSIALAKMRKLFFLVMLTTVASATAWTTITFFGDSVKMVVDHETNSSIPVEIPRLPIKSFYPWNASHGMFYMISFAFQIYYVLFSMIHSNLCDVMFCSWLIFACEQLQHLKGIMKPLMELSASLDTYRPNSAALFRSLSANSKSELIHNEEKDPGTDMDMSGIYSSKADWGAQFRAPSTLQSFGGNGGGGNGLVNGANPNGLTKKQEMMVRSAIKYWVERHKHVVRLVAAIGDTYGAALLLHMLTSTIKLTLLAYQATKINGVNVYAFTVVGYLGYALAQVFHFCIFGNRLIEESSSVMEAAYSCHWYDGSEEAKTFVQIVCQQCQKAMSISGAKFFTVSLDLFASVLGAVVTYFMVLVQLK
The assay is described as follows: Outside-out patch recording from HEK293 cells coexpressing Or22a and Or83b. In kind it is cell-based. To be noted: Etb 100 nM, 1 s, -60 mV; for Ii Peak size / Ii Peak time / Ii Recov. / Im Latency / Im Peak size / Im Peak time / Im Recov.: Or22a C-terminal GFP fusion protein. Here is the method: (§1) HEK293 cells were cultured as described by Wicher and colleagues (Wicher et al., J. Biol. Chem. 281, 3227-36 (2006)). In brief, HEK293 cells were cultured at a density of ∼2*10^4 per 35-mm dish and transfected with 1 µg pcDNA3-DOR22a-GFP and 1 µg pcDNA3-DOR83b-GFP (Neuhaus, et al., Nat. Neurosci. 8, 15-17 (2005); DNAs were a generous gift of Dr. E. Neuhaus and Dr. H. Hatt) using Roti-Fect transfection kit (Roth, Karlsruhe, Germany). In some experiments we transfected cells with pcDNA3-DOR22a-GFP or pcDNA3-DOR83b-GFP alone. We also examined the properties of DOR47a, which was cloned, using standard molecular biology methods into a pcDNA3.1(-) expression vector. To test for putative G-protein coupling, cells were transfected with the respective OR-DNA together with 1.5 µg hHCN2/pcDNA3 (provided by M. Biel, Munich, Germany), with 1 µg hKCNQ4/pcDNA3.1 or with 1 µg hCNGA2/pCMV6-XL4 (Origene, Rockville, MD, USA).
Ion currents in HEK293 cells were measured with the patch-clamp technology as described (Wicher et al, J. Biol. Chem. 281, 3227-36 (2006)). In brief, ion currents in HEK293 cells were measured at room temperature using whole-cell patch-clamp with appropriate compensation of series resistance and of capacitive currents. Additional experiments were performed in the outside-out configuration. Current measurements and data acquisition were performed using an EPC9 patch-clamp amplifier controlled by PatchMaster software (both HEKA Elektronik, Lambrecht, Germany). Patch-clamp pipettes were fabricated from borosilicate capillaries. Pipettes for whole-cell recordings had resistances of 2-4 MΩ for excised-patch recordings the pipette resistance was up to 15 MΩ.
The standard pipette solution contained (in mM) 140 KCl, 4 NaCl, 2.2 CaCl2, 2 Mg-ATP, 0.05 Na-GTP, 5 EGTA, 10 HEPES (pH 7.3), and the standard bath solution contained (in mM) 135 NaCl, 5 KCI, 1 CaCl2, 1 MgCl2, 10 HEPES, 10 glucose (pH 7.4). To differentiate between ionotropic and metabotropic pathways of receptor activation (Fig. 2a-d) the pipette solution contained either 2 mM ATP plus 2 mM GTP or 2 mM ADP plus 2 mM GDP (both for whole-cell and outside-out configuration). For the preparation of Cl^--free solutions the chloride salts were substituted by gluconate salts. The pipette Cs^+ solution contained (in mM) 140 CsCl, 1 Mg-ATP, 10 EGTA, 10 HEPES (pH = 7.3), and the Cs^+ bath solution contained (in mM) 140 CsCl, 15 glucose, 15 HEPES (pH = 7.4). The Ca^2+-free bath solution contained (in mM) 140 NaCl, 15 glucose, 15 HEPES, and the Na^+-free bath solution contained (in mM) 140 NMDG-Cl, 10 CaCl2, 10 glucose, 15 HEPES.
With the exception of GDP-γ-S, which was applied via the patch pipette, all substances were applied to the bath using either a bath perfusion system (BPS4 from ALA, New York, USA) or a rapid solution changer (RSC160 from Biologic, Claix, France) which were controlled by the PatchMaster software (HEKA Elektronik).

The test system of assay [2] is hKCNQ4. As to the kind of experiment: Gq coupling test: KCNQ4 current in HEK293 cells coexpressing Or22a, Or83b and hKCNQ4. To be noted: increasing Etb concentrations; +40 mV. Format: cell-based, human. As for the experimental part: as §1
Ion currents in HEK293 cells were measured with the patch-clamp technology as described (Wicher et al, J. Biol. Chem. 281, 3227-36 (2006)). In brief, ion currents in HEK293 cells were measured at room temperature using whole-cell patch-clamp with appropriate compensation of series resistance and of capacitive currents. Additional experiments were performed in the outside-out configuration. […]

Entries after “also recorded” stand apart in the source; their conditions may differ.

As for `CCCC(=O)OCC` [Etb, ethyl butyrate], in assay [1], the “latency of Ii” value is recorded as less than 0.5 s. Also, in assay [1] (ADP and GDP (-)), the “Ii Peak size” value was found to be 1.6 ± 0.3 pA, the “Ii Peak time” value was 1.38 ± 0.23 s, the “Ii Recov.” value came out at 4.5 ± 1.2 s and the “Im Latency” value is reported as 11 ± 3 s. In assay [1] (ADP and GDP (-)), the “Im Peak size” value amounted to 0.5 ± 0.2 pA, the “Im Peak time” value worked out at 36 ± 8 s and the “Im Recov.” value was 58 ± 9 s. Further, in assay [1] (ATP and GTP (+)), the “Ii Peak size” value was 1.3 ± 0.3 pA, the “Ii Peak time” value came out at 1.13 ± 0.11 s, the “Ii Recov.” value was 5.2 ± 1.1 s and the “Im Latency” value turned out to be 10 ± 2 s. Besides, in assay [1] (ATP and GTP (+)), the “Im Peak size” value is recorded as 1.7 ± 0.4 pA, the “Im Peak time” value came out at 33 ± 4 s and the “Im Recov.” value is given as 45 ± 7 s. Besides, the “effect on KCNQ4 current” value in assay [2] is on record as “remains unaffected; also recorded: had no effect”.
